Data on seven compounds can be found in ChEMBL document CHEMBL5346876, “Hybrids of polyphenolic/quinone acids, the potential preventive and therapeutic drugs for PD: Disaggregate α-Syn fibrils, inhibit inclusions, and repair damaged neurons in mice” (Eur J Med Chem, 2023).

The structures appear in SMILES notation. Active and inactive are the calls of the source. The calls are words filed in the database; no cut-off is given here.

In data set [1] the test system is H4. The experiment in a line: Antioxidant activity in H2O2-induced human H4 cells assessed as ROS scavenging at 10 uM preincubated with H2O2 for 3 hrs followed by DCFH-DA addition for 30 mins and further incubated with compound and measured after 30 mins by DCFH-DA dye based fluorescence microplate reader analysis relative to control. Format: functional. Conditions: 0.5 h.

The test system of data set [2] is H4. Put plainly: Antioxidant activity in H2O2-induced human H4 cells assessed as reduction in ROS generation ratio preincubated with H2O2 for 3 hrs followed by DCFH-DA addition for 30 mins and further incubated with compound and measured after 30 mins by DCFH-DA dye based fluorescence microplate reader analysis. Conditions: dose 3-10 µM. Type of data set: functional, cell-based.

A short description of data set [3]: Cytotoxicity against human H4 cells assessed as cell viability at 100 uM incubated for 48 hrs by CCK-8 assay relative to control. Type of data set: toxicity, cell-based. Conditions: read-out: Activity.
Data set [4] has as its system H4. The experiment in a line: Antioxidant activity in H2O2-induced human H4 cells assessed as reduction in exogenous ROS level by measuring dark green fluorescence preincubated with H2O2 for 3 hrs followed by compound addition and measured after 30 mins by flow cytometric analysis. Format: functional, cell-based.
Data set [5] can be described thus: Cytotoxicity against human SH-SY5Y cells assessed as cell viability at 100 uM incubated for 48 hrs by CCK-8 assay relative to control. Format: toxicity, cell-based. The following applies: read-out: Activity. In general terms: Tetrazolium dyes change colour on reduction, which living cells bring about.
In data set [6] the test system is H4. The experiment in a line: Antioxidant activity in H2O2-induced human H4 cells assessed as reduction in endogenous ROS level by measuring green fluorescence preincubated with H2O2 for 3 hrs followed by compound addition and measured after 30 mins by flow cytometric analysis. Format: functional, cell-based. In general terms: Flow cytometry measures light scatter and fluorescence of single cells or particles in a stream.

For data set [7], the system named is Mus musculus. Put plainly: Neuroprotective activity against 6-OHDA-induced lesioned C57 mouse model of Parkinson's disease assessed as reduction in apomorphine-induced contralateral rotation by measuring decrease in turn number preadministered with compound for 14 days via right striatum and measured 30 mins after apomorphine addition by videotaping analysis relative to control. Type of data set: functional. Also on record: scale not given: the % may be the effect or the level left. Conditions: time 336.5 hrs.

Data set [8] relates to Mus musculus. Put plainly: Neuroprotective activity against 6-OHDA-induced lesioned C57 mouse model of Parkinson's disease assessed as improvement of stiff limbs administered via right striatum and measured after 14 days by rotarod test. Format: functional, organism-based. Conditions: time 14.0 day.
Data set [9] concerns Mus musculus. Put plainly: Neuroprotective activity against 6-OHDA-induced lesioned C57 mouse model of Parkinson's disease assessed as improvement of weakened grip administered via right striatum and measured after 14 days by rotarod test. Format: functional, organism-based. The following applies: time 14.0 day. On the technique in general: The rotarod test checks motor coordination on a turning rod.

In data set [10] the test system is Mus musculus. The experiment in a line: Neuroprotective activity against 6-OHDA-induced lesioned C57 mouse model of Parkinson's disease assessed as improvement of poor balance administered via right striatum and measured after 14 days by rotarod test. The following applies: time 14.0 day. Type of data set: functional, organism-based.
The nature of data set [11]: Toxicity in C57 mouse assessed as effect on survival of ipsilateral dopaminergic neuron in caudate putamen nucleus of brain administered via right striatum and measured after 21 days by immunofluorescence staining analysis. Conditions: in vivo, other, 504 h, time 21 day.
In data set [12] the test system is Mus musculus. The experiment in a line: Neuroprotective activity against 6-OHDA-induced lesioned C57 mouse model of Parkinson's disease assessed as reduction in ipsilateral dopaminergic neuron damage in caudate putamen nucleus of brain administered via right striatum and measured after 21 days by immunofluorescence staining analysis. Type of data set: functional, organism-based. Conditions: time 21.0 day.

A short description of data set [13]: Toxicity in C57 mouse assessed as effect on survival of ipsilateral dopaminergic neuron in substantia nigra pars reticulate of brain administered via right striatum and measured after 21 days by immunofluorescence staining analysis. Conditions: in vivo, other, 504 h, time 21 day.
The subject of data set [14] is Mus musculus. Put plainly: Neuroprotective activity against 6-OHDA-induced lesioned C57 mouse model of Parkinson's disease assessed as reduction of dopaminergic neuronal damage at 2.7 ug administered via right striatum and measured after 21 days. The following applies: dose 2.7 µg, time 21.0 day. Type of data set: functional, organism-based.
Data set [15] deals with Mus musculus. The experiment in a line: Neuroprotective activity against 6-OHDA-induced lesioned C57 mouse model of Parkinson's disease assessed as increase in survival of ipsilateral dopaminergic neuron in substantia nigra pars reticulate of brain by measuring tyrosine hydroxylase fluorescence intensity administered via right striatum and measured after 21 days by immunofluorescence staining analysis (reference value: 9.7 %). Type of data set: functional. Conditions: time 21 day.

For data set [16], the system named is Mus musculus. The experiment in a line: Neuroprotective activity against 6-OHDA-induced lesioned C57 mouse model of Parkinson's disease assessed as reduction in weight loss administered via right striatum and measured after 14 days. Format: functional, organism-based. Conditions: time 14.0 day.
In data set [17] the test system is Mus musculus. The experiment in a line: Neuroprotective activity against 6-OHDA-induced lesioned C57 mouse model of Parkinson's disease assessed as increase in survival of ipsilateral dopaminergic neuron in caudate putamen nucleus of brain by measuring tyrosine hydroxylase fluorescence intensity administered via right striatum and measured after 21 days by immunofluorescence staining analysis (reference value: 11.5 %). Type of data set: functional. Conditions: time 21 day.

A short description of data set [18]: Toxicity in C57 mouse assessed as effect on time spend in rod administered via right striatum and measured after 14 days by rotarod test. The following applies: in vivo, other, 336 h, time 14 day.
Data set [19] deals with Mus musculus. The experiment in a line: Neuroprotective activity against 6-OHDA-induced lesioned C57 mouse model of Parkinson's disease assessed as protection of dopaminergic neuronal damage administered via right striatum and measured after 21 days. Conditions: time 21.0 day. Type of data set: functional, organism-based.

Take `O=C(/C=C/c1ccc(O)c(O)c1)Nc1ccc(NC(=O)c2ccc(F)cc2)cc1`: the results for the Activity in data set [1] and in data set [2] were 70% and “Dose-Dependent Effect”, respectively.

For the compound `O=C1C=CC(=O)C(/C=C/C(=O)Nc2ccc(NC(=O)c3ccc(F)cc3F)cc2)=C1`, the viability at 48 h, 100 µM in data set [3] and in data set [5] was more than 85% throughout. Further, the Activity entry in data set [2] was “Dose-Dependent Effect”. The result in data set [4] and in [6] was Active.

In the case of `O=C(/C=C/c1cc(O)ccc1O)Nc1ccc(NC(=O)c2ccc(O)cc2)cc1`, the Activity in [1] is 70%; in data set [2], “Dose-Dependent Effect”. Further, the viability at 48 h, 100 µM in [3] and in [5] was more than 85% in each case.

As to `O=C1C=CC(=O)C(/C=C/C(=O)Nc2ccc(NC(=O)c3ccc(F)cc3)cc2)=C1`, the Activity in data set [1] was 70%; in [2], “Dose-Dependent Effect”. Moreover, the viability at 48 h, 100 µM in data set [3] and in data set [5] was more than 85% in each case.

As to `O=C1C=CC(=O)C(/C=C/C(=O)Nc2ccc(NC(=O)c3ccc(F)c(F)c3)cc2)=C1`, the viability at 48 h, 100 µM in [3] and in data set [5] was more than 85% in each case. Moreover, the Activity entry in data set [2] was “Dose-Dependent Effect”.

`O=C(/C=C/c1cc(O)ccc1O)Nc1ccc(NC(=O)c2ccc(F)cc2F)cc1`: the viability at 48 h, 100 µM in data set [3] and in data set [5] was more than 85% each time. The Activity result in data set [2] is “Dose-Dependent Effect”. Further, the outcome in data set [4] and in [6] was Active.

Regarding `O=C(/C=C/c1cc(O)ccc1O)Nc1ccc(NC(=O)/C=C/c2cc(O)ccc2O)cc1`, the Activity in data set [7] was 87%; in [1] it was 70%; in data set [2], “Dose-Dependent Effect”; in data set [11], “Non-Toxic”; in [13], “Non-Toxic”; in [19] it was “Dose-Dependent Effect”. Moreover, the result in [8], in data set [9], in data set [10], in data set [12], in data set [14] and in data set [16] was Active. For the same compound, the viability at 48 h, 100 µM in [3] and in [5] was more than 85% throughout. The Flu intensity turned out to be 65.1% in data set [15] and 66.2% in data set [17]. Moreover, the Time in data set [18] amounted to 264 s.
